This is an account of results in ChEMBL document CHEMBL1667821, “Synthesis and galectin-binding activities of mercaptododecyl glycosides containing a terminal β-galactosyl group” (Bioorg Med Chem Lett, 2011).

Experiment [1] addresses T1, Galectin-2 (Homo sapiens) (UniProt P05162).
T1 sequence (whole entry): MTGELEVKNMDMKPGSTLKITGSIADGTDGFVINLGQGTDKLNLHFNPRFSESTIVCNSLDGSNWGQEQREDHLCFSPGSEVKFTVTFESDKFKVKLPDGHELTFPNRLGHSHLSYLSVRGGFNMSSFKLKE
Kind of experiment: Binding affinity to human galectin-2 by surface plasmon resonance method. In general terms: SPR reads the build-up and loss of mass on a sensor chip optically.

A further experiment addresses Galectin-3 (Homo sapiens, UniProt P17931). Nature of the experiment: Binding affinity to human galectin-3 by surface plasmon resonance method.
The target of experiment [2] is Galectin-1 (Homo sapiens) (UniProt P09382). Kind of experiment: Binding affinity to human galectin-1 by surface plasmon resonance method.
Galectin-1 (Homo sapiens), sequence (P09382 whole entry): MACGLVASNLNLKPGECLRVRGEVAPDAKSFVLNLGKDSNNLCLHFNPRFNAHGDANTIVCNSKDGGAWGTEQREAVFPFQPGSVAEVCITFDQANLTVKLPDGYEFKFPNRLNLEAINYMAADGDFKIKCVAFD
Experiment [3] concerns the target T2, Galectin-8 (Homo sapiens) (UniProt O00214).
T2 sequence (whole entry): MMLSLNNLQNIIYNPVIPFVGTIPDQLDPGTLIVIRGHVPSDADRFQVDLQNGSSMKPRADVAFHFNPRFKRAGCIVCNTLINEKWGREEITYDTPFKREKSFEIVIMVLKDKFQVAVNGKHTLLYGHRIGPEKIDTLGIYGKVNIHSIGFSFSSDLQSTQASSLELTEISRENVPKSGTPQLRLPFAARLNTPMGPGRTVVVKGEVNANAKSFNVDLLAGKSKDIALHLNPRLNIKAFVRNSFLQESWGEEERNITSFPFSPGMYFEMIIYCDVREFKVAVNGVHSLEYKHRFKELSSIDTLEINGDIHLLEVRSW
Kind of experiment: Binding affinity to human galectin-8 by surface plasmon resonance method.

For experiment [4], the target named is T3, Galectin-4 (Homo sapiens) (UniProt P56470).
T3 sequence (whole entry): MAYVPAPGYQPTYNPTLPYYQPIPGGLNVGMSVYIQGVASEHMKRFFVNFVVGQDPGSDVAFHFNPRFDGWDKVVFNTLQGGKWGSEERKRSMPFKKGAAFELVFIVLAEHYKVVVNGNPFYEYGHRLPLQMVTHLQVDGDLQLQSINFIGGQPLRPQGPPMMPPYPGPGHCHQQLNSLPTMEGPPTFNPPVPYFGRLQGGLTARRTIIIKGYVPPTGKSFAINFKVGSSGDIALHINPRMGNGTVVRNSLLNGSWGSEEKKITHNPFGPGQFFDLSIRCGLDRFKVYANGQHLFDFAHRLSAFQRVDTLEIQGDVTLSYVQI
Nature of the experiment: Binding affinity to human galectin-4 by surface plasmon resonance method.

Experiment [5] addresses Galectin-7 (Homo sapiens) (UniProt P47929). Kind of experiment: Binding affinity to human galectin-7 by surface plasmon resonance method.
Experiment [6] concerns the target T4, Galectin-8 (Homo sapiens, UniProt O00214).
T4 sequence (O00214 whole entry): T2 sequence (whole entry)
Kind of experiment: (§1) Binding affinity to human galectin-8 component 1 by surface plasmon resonance method.

Experiment [7] deals with T2, Galectin-8 (Homo sapiens). The description is as §1.
Experiment [8] deals with T4, Galectin-8. Nature of the experiment: (§2) Binding affinity to human galectin-8 component 2 by surface plasmon resonance method.
Experiment [9] addresses T2, Galectin-8 (Homo sapiens). The description is as §2.
The target of experiment [10] is T3, Galectin-4 (Homo sapiens). Kind of experiment: (§3) Binding affinity to human galectin-4 component 2 by surface plasmon resonance method.
The target of experiment [11] is T5, Galectin-4 (Homo sapiens, UniProt P56470).
T5 sequence (P56470 whole entry): T3 sequence (whole entry)
Described as §3.

The target of experiment [12] is T3, Galectin-4 (Homo sapiens). Kind of experiment: (§4) Binding affinity to human galectin-4 component 1 by surface plasmon resonance method.
The target of experiment [13] is T5, Galectin-4. The description is as §4.

Structures are written as SMILES. “And” between values parts separate entries of the source, which are not always exact repeats. Equal entries are not always repeated. The source made the active and inactive calls. The rule behind the calls is not given here.

Galectin-3, sequence (P17931 whole entry): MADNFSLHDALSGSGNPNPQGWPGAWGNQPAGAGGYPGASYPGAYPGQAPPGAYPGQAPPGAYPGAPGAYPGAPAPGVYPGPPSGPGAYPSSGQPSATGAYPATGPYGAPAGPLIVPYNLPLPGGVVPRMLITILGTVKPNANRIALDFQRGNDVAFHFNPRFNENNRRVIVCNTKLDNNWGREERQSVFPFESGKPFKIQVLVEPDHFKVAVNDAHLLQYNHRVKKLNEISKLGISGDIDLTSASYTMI
Galectin-7 (Homo sapiens), sequence (P47929 whole entry): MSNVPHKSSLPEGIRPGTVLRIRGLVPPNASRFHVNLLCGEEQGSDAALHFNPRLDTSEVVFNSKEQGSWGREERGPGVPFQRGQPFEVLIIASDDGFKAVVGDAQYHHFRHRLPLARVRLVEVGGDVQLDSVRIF

Take `OC[C@H]1O[C@@H](OCCCCCCCCCCCCS)[C@H](O)[C@@H](O)[C@H]1O`: the results for the Activity in [1], in experiment [2] and in experiment [3] were 3.8 a.u, 3.4 a.u and 34.1 a.u, respectively. The outcome (on Galectin-3; in experiment [5]) was inactive. For the same molecule, the outcome in experiment [4] was Active.

As to `OC[C@H]1OC(O[C@H]2[C@H](O)[C@@H](O)[C@H](OCCCCCCCCCCCCS)O[C@@H]2CO)[C@H](O)[C@@H](O)[C@H]1O` (some centres undefined), the Activity turned out to be 2 a.u in experiment [1]; 82.3 a.u on Galectin-3; 9.5 a.u in experiment [2]; 368 a.u in [3]; 457 a.u in [4]; 4.2 a.u in experiment [5]. Further, the Kd was 1.6 nM and 1.55 nM at Galectin-8 [6]; 1060 nM on Galectin-3; 25 nM and 24.6 nM at Galectin-8 [8]; 85 nM and 84.7 nM on Galectin-4 [11]; 140 nM and 136 nM on Galectin-4 [13]. Further, the Ka in experiment [7] was determined as 8970 M⁻¹ s⁻¹; at Galectin-3, 1760 M⁻¹ s⁻¹; in [9] it was 9.61e+06 M⁻¹ s⁻¹; in experiment [10] it was 172000 M⁻¹ s⁻¹; in [12], 13000 M⁻¹ s⁻¹. Besides, the Kdiss in experiment [7] turned out to be 1.39 ×10⁻⁵ /s; at Galectin-3, 1.86 ×10⁻³ /s; in experiment [9], 2.37 ×10⁻¹ /s; in [10] it was 1.45 ×10⁻² /s; in experiment [12], 1.76 ×10⁻³ /s.

For the molecule `OC[C@H]1O[C@@H](O[C@H]2C=C[C@@H](OCCCCCCCCCCCCS)O[C@@H]2CO)[C@H](O)[C@@H](O)[C@H]1O`, the Activity amounted to 13.4 a.u in [1], 5.1 a.u at Galectin-3 and 25.1 a.u in experiment [2]. The result in [3] and in experiment [4] was Active. Moreover, the outcome in [5] was inactive.

For `OC[C@H]1O[C@@H](O[C@H]2[C@H](O)C[C@@H](OCCCCCCCCCCCCS)O[C@@H]2CO)[C@H](O)[C@@H](O)[C@H]1O`, the Activity was found to be 11 a.u in experiment [1]; 135 a.u at Galectin-3; 17.8 a.u in experiment [2]; 74.5 a.u in experiment [3]; 345 a.u in experiment [4]. Besides, the Kd on Galectin-8 [6] was 37 nM and 36.9 nM; at Galectin-3, 1430 nM; at Galectin-8 [8] it was 31 nM and 31.3 nM; at Galectin-4 [11] it was 58 nM; at Galectin-4 [13], 300 nM and 304 nM. Moreover, the Ka turned out to be 18600 M⁻¹ s⁻¹ in experiment [7]; 1900 M⁻¹ s⁻¹ on Galectin-3; 35500 M⁻¹ s⁻¹ in experiment [9]; 65200 M⁻¹ s⁻¹ in [10]; 4630 M⁻¹ s⁻¹ in [12]. The Kdiss in experiment [7] is 6.85 ×10⁻² /s; at Galectin-3, 2.72 ×10⁻³ /s; in [9], 1.11 ×10⁻¹ /s; in experiment [10], 3.78 ×10⁻³ /s; in experiment [12] it was 1.41 ×10⁻³ /s. In addition, in experiment [5], the result was inactive.

For `CC(=O)N[C@H]1[C@@H](OCCCCCCCCCCCCS)O[C@H](CO)[C@@H](O[C@@H]2O[C@H](CO)[C@H](O)[C@H](O)[C@H]2O)[C@@H]1O`, in [1], the result was inactive. Further, the Kd on Galectin-8 [6] was 0.23 nM and 0.233 nM; on Galectin-3, 2200 nM; on Galectin-4 [11], 780 nM and 777 nM; at Galectin-4 [13], 1260 nM. Besides, the Ka in experiment [7] came to 9370 M⁻¹ s⁻¹; at Galectin-3, 5670 M⁻¹ s⁻¹; in experiment [9] it was 48700 M⁻¹ s⁻¹; in experiment [10] it was 111000 M⁻¹ s⁻¹; in experiment [12], 2330 M⁻¹ s⁻¹. Moreover, the Kdiss amounted to 2.18 ×10⁻⁶ /s in experiment [7]; 1.25 ×10⁻² /s at Galectin-3; 2.39 ×10⁻³ /s in experiment [9]; 8.6 ×10⁻² /s in experiment [10]; 2.92 ×10⁻³ /s in experiment [12]. The Activity on Galectin-3 stood at 167 a.u; in [2], 4.1 a.u; in experiment [3] it was 163 a.u; in [4], 462 a.u; in [5] it was 0.8 a.u.

One may read the Kd as the concentration at which binding is half-saturated.
